Measurements published in PubChem BioAssay AID1919009 (Molecular Pharmacology Branch, DTP, NCI, 2023).

System: K24384-001-R-PDC complex spheroid growth
Test: Anticancer human tumor K24384-001-R-PDC patient-derived pancreatic adenocarcinoma cell line growth inhibition [AhR]
Settings: for IC50: curve of first compound; for viability, T/C: stronger effect = lower value
Procedure, shortened: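 Agents were dosed in half-log steps down from roughly clinical Cmax, or from 10 microM where Cmax was unknown, alone and with AhR antagonists. Read-out: percent test/control growth of tumor spheroids containing HUVEC and MSC stromal cells.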

[1] = second compound 0.1 µM, first compound 0.0316 µM
[2] = second compound 0.1 µM, first compound 0.1 µM
[3] = second compound 0.1 µM, first compound 0.316 µM
[4] = second compound 0.1 µM, first compound 1 µM
[5] = second compound 0.1 µM, first compound 3.16 µM
[6] = second compound 0.1 µM, first compound 10 µM
[7] = second compound 0.316 µM, first compound 0.0316 µM
[8] = second compound 0.316 µM, first compound 0.1 µM
[9] = second compound 0.316 µM, first compound 0.316 µM
[10] = second compound 0.316 µM, first compound 1 µM
[11] = second compound 0.316 µM, first compound 3.16 µM
[12] = second compound 0.316 µM, first compound 10 µM
[13] = second compound 1 µM, first compound 0.0316 µM
[14] = second compound 1 µM, first compound 0.1 µM
[15] = second compound 1 µM, first compound 0.316 µM
[16] = second compound 1 µM, first compound 1 µM
[17] = second compound 1 µM, first compound 3.16 µM
[18] = second compound 1 µM, first compound 10 µM
[19] = second compound 3.16 µM, first compound 0.0316 µM
[20] = second compound 3.16 µM, first compound 0.1 µM
[21] = second compound 3.16 µM, first compound 0.316 µM
[22] = second compound 3.16 µM, first compound 1 µM
[23] = second compound 3.16 µM, first compound 3.16 µM
[24] = second compound 3.16 µM, first compound 10 µM
[25] = second compound 10 µM, first compound 0.0316 µM
[26] = second compound 10 µM, first compound 0.1 µM
[27] = second compound 10 µM, first compound 0.316 µM
[28] = second compound 10 µM, first compound 1 µM
[29] = second compound 10 µM, first compound 3.16 µM
[30] = second compound 10 µM, first compound 10 µM
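For viability, T/C in this document: percent of DMSO vehicle-treated spheroid viability set as 100%.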

## CC1(C)CCC(CN2CCN(c3ccc(C(=O)NS(=O)(=O)c4ccc(NCC5CCOCC5)c([N+](=O)[O-])c4)c(Oc4cnc5[nH]ccc5c4)c3)CC2)=C(c2ccc(Cl)cc2)C1 + CC(CO)NC(=O)c1cc(-c2ccc(Cl)cc2)nn(-c2cnn(C)c2)c1=O
Second compound 0.1 µM
  IC50: > 10000 nM
Second compound 0.316 µM
  IC50: > 10000 nM
Second compound 1 µM
  IC50: > 10000 nM
Second compound 3.16 µM
  IC50: 9000 nM
Second compound 10 µM
  IC50: > 10000 nM
[1]
  viability, T/C: 91.4%
[2]
  viability, T/C: 115%
[3]
  viability, T/C: 94.4%
[4]
  viability, T/C: 88.3%
[5]
  viability, T/C: 87.9%
[6]
  viability, T/C: 50.5%
[7]
  viability, T/C: 117%
[8]
  viability, T/C: 124%
[9]
  viability, T/C: 123%
[10]
  viability, T/C: 101%
[11]
  viability, T/C: 106%
[12]
  viability, T/C: 49.9%
[13]
  viability, T/C: 123%
[14]
  viability, T/C: 139%
[15]
  viability, T/C: 123%
[16]
  viability, T/C: 115%
[17]
  viability, T/C: 110%
[18]
  viability, T/C: 51.7%
[19]
  viability, T/C: 97.3%
[20]
  viability, T/C: 112%
[21]
  viability, T/C: 122%
[22]
  viability, T/C: 110%
[23]
  viability, T/C: 77.9%
[24]
  viability, T/C: 47.2%
[25]
  viability, T/C: 101%
[26]
  viability, T/C: 114%
[27]
  viability, T/C: 113%
[28]
  viability, T/C: 110%
[29]
  viability, T/C: 90.2%
[30]
  viability, T/C: 53%

## COc1cc(Nc2ncc3c(n2)-c2ccc(Cl)cc2C(c2c(F)cccc2OC)=NC3)ccc1C(=O)O + CC(CO)NC(=O)c1cc(-c2ccc(Cl)cc2)nn(-c2cnn(C)c2)c1=O
Second compound 0.1 µM
  IC50: 2010 nM
Second compound 0.316 µM
  IC50: 7780 nM
Second compound 1 µM
  IC50: > 10000 nM
Second compound 3.16 µM
  IC50: > 10000 nM
Second compound 10 µM
  IC50: > 10000 nM
[1]
  viability, T/C: 87.6%
[2]
  viability, T/C: 80.7%
[3]
  viability, T/C: 84%
[4]
  viability, T/C: 57.6%
[5]
  viability, T/C: 44.5%
[6]
  viability, T/C: 45.5%
[7]
  viability, T/C: 81%
[8]
  viability, T/C: 79.9%
[9]
  viability, T/C: 76.4%
[10]
  viability, T/C: 57.5%
[11]
  viability, T/C: 48.4%
[12]
  viability, T/C: 51.6%
[13]
  viability, T/C: 92.3%
[14]
  viability, T/C: 77.7%
[15]
  viability, T/C: 79.4%
[16]
  viability, T/C: 60.5%
[17]
  viability, T/C: 49.5%
[18]
  viability, T/C: 55%
[19]
  viability, T/C: 90.6%
[20]
  viability, T/C: 73.4%
[21]
  viability, T/C: 72.5%
[22]
  viability, T/C: 54%
[23]
  viability, T/C: 62.3%
[24]
  viability, T/C: 58.6%
[25]
  viability, T/C: 94%
[26]
  viability, T/C: 77.1%
[27]
  viability, T/C: 80.7%
[28]
  viability, T/C: 69.7%
[29]
  viability, T/C: 64%
[30]
  viability, T/C: 65.8%

## Cn1ncnc1C1c2n[nH]c(=O)c3cc(F)cc(c23)NC1c1ccc(F)cc1 (stereo not given) + CC(CO)NC(=O)c1cc(-c2ccc(Cl)cc2)nn(-c2cnn(C)c2)c1=O
Second compound 0.1 µM
  IC50: > 100 nM
Second compound 0.316 µM
  IC50: > 100 nM
Second compound 1 µM
  IC50: > 100 nM
Second compound 3.16 µM
  IC50: > 100 nM
Second compound 10 µM
  IC50: > 100 nM
Second compound 0.1 µM, first compound 0.000316 µM
  viability, T/C: 101%
Second compound 0.1 µM, first compound 0.001 µM
  viability, T/C: 99.9%
Second compound 0.1 µM, first compound 0.00316 µM
  viability, T/C: 94%
Second compound 0.1 µM, first compound 0.01 µM
  viability, T/C: 79.8%
[1]
  viability, T/C: 82%
[2]
  viability, T/C: 69.5%
Second compound 0.316 µM, first compound 0.000316 µM
  viability, T/C: 105%
Second compound 0.316 µM, first compound 0.001 µM
  viability, T/C: 108%
Second compound 0.316 µM, first compound 0.00316 µM
  viability, T/C: 90.4%
Second compound 0.316 µM, first compound 0.01 µM
  viability, T/C: 80.8%
[7]
  viability, T/C: 74.7%
[8]
  viability, T/C: 74.8%
Second compound 1 µM, first compound 0.000316 µM
  viability, T/C: 95%
Second compound 1 µM, first compound 0.001 µM
  viability, T/C: 105%
Second compound 1 µM, first compound 0.00316 µM
  viability, T/C: 90.3%
Second compound 1 µM, first compound 0.01 µM
  viability, T/C: 65.8%
[13]
  viability, T/C: 76.6%
[14]
  viability, T/C: 72.4%
Second compound 3.16 µM, first compound 0.000316 µM
  viability, T/C: 78.7%
Second compound 3.16 µM, first compound 0.001 µM
  viability, T/C: 74.4%
Second compound 3.16 µM, first compound 0.00316 µM
  viability, T/C: 81.2%
Second compound 3.16 µM, first compound 0.01 µM
  viability, T/C: 69.9%
[19]
  viability, T/C: 61.8%
[20]
  viability, T/C: 62.8%
Second compound 10 µM, first compound 0.000316 µM
  viability, T/C: 66.3%
Second compound 10 µM, first compound 0.001 µM
  viability, T/C: 67.8%
Second compound 10 µM, first compound 0.00316 µM
  viability, T/C: 67.8%
Second compound 10 µM, first compound 0.01 µM
  viability, T/C: 66.1%
[25]
  viability, T/C: 63.3%
[26]
  viability, T/C: 54.1%

## NS(=O)(=O)OCC1CC(n2ccc3c(NC4CCc5ccccc54)ncnc32)CC1O (stereo not given) + CC(CO)NC(=O)c1cc(-c2ccc(Cl)cc2)nn(-c2cnn(C)c2)c1=O
Second compound 0.1 µM
  IC50: 984 nM
Second compound 0.316 µM
  IC50: 811 nM
Second compound 1 µM
  IC50: 860 nM
Second compound 3.16 µM
  IC50: 473 nM
Second compound 10 µM
  IC50: 642 nM
[1]
  viability, T/C: 114%
[2]
  viability, T/C: 123%
[3]
  viability, T/C: 116%
[4]
  viability, T/C: 49%
[5]
  viability, T/C: 28.7%
[6]
  viability, T/C: 25.3%
[7]
  viability, T/C: 132%
[8]
  viability, T/C: 147%
[9]
  viability, T/C: 89.4%
[10]
  viability, T/C: 45.6%
[11]
  viability, T/C: 26.6%
[12]
  viability, T/C: 22.1%
[13]
  viability, T/C: 152%
[14]
  viability, T/C: 162%
[15]
  viability, T/C: 72%
[16]
  viability, T/C: 38.2%
[17]
  viability, T/C: 32.9%
[18]
  viability, T/C: 22.5%
[19]
  viability, T/C: 125%
[20]
  viability, T/C: 128%
[21]
  viability, T/C: 60.6%
[22]
  viability, T/C: 38.8%
[23]
  viability, T/C: 28.6%
[24]
  viability, T/C: 23.1%
[25]
  viability, T/C: 87.1%
[26]
  viability, T/C: 79.8%
[27]
  viability, T/C: 59.1%
[28]
  viability, T/C: 44.7%
[29]
  viability, T/C: 29.6%
[30]
  viability, T/C: 24.6%
